Measured values: patent US20170027952A1, “ASSOCIATION BETWEEN 3-[(3--2-OXO-2,3-DIHYDRO-1H-INDOL-5-YL)METHYL]-1,3-THIAZOLIDINE-2,4-DIONE AND AN EGFR TYR KINASE INHIBITOR” (LES LABORATOIRES SERVIER, priority 2015, published 2017)
Counter-ions that a name gives are not always drawn.

Experiments:
[1] = test system: erlotinib-resistant HCC827 tumour; test: Inhibition of the growth of the erlotinib-resistant HCC827 tumour; type: in vivo, female SCID mice; settings: d19, end of treatments, compounds on their own, oral daily for 19 days; erlotinib 12.5 mg/kg, compound A 50 mg/kg
Description: The tumours were allocated at random into groups of eight mice when the tumour volume had reached approximately 200 mm^3. […] The tumour volumes were measured two to three times each week using a sliding caliper. The median tumour volumes with the interquartile ranges are recorded on the graph.

[2] = test system: erlotinib-resistant cell line HCC827; settings: resistant line HCC827, compound on its own, 100 nM
Description: A cell viability test allowing the anti-proliferative ability of the anti-tumour compounds to be measured was used. The chosen cell line is line HCC827, a non-small cell lung cancer line that depends upon EGFR for its survival. […] The cells are seeded (150 μl) at the appropriate density in the wells of 96-well plates 2 days prior to the experiment. One column contains the untreated control cells representing 100% proliferation. The others are incubated with the test products for 4 doubling times.

O=C1Nc2ccc(CN3C(=O)CSC3=O)cc2C1=Cc1cc(CN2CCOCC2)c[nH]1 [compound A, 3-[(3-{[4-(4-morpholinyl-methyl)-1H-pyrrol-2-yl]methylene}-2-oxo-2,3-dihydro-1H-indol-5-yl)methyl]-1,3-thiazolidine-2,4-dione hydrochloride]
inhibition of the growth [1]: 83%
effect on the viability [2]: no effect on the viability
